# “Also recorded” adds a separate entry of the source. Where two headings read alike, the source gives them in different places.
# What was measured:
# [1] = target: σ1 receptor (S1R); conditions: cited from earlier work
# [2] = tested on: neurons (NeuN); assay: NeuN immunohistochemistry after intrastriatal AMPA; assay type: in vivo, rat
# Protocol: Animals were maintained normothermic (body temperature: 37.0 ± 0.4 °C) during the surgery through the use of a heating blanket (Homeothermic Blanket Control Unit, Harvard Apparatus Limited®, Edenbridge, Kent, UK). Twenty-four hours later, the rats were anesthetized again as described above and scanned with a 3T cryogen-free MRS 3000 scanner with a quadrature, rat head coil (MR Solutions, Guildford, UK), [35] to assess oedema (i.e. lesion size and location) immediately before the PET scan. Parameters for the T2-weighted RARE sequence were: repetition time = 4800 ms, base echo time = 17 ms, effective echo time = 68 ms, number of echoes = 8, bandwidth = 20 kHz, number of samples = 256, number of views = 240, number of averages = 1 with 25 slices of 1.06 mm, giving a final voxel size of 0.136 × 0.136 × 1.06 mm.
# Immunohistochemistry was also carried out in rats that received intrastriatal AMPA to visualise NeuN (neuronal marker). Animals were culled by isoflurane overdose confirmed by cervical dislocation. The brains were collected, snap frozen using isopentane on dry ice and stored at -80 °C. Coronal brain sections (20 µm thick) were taken using a cryostat (Leica CM3050s, Leica Biosystems Nussloch GmbH, Germany) and stored at -80 °C. Sections were allowed to defrost and dry at room temperature for 20min and then fixed with 4% paraformaldehyde for 10 min before being washed (6 × 5 min) in phosphate buffered saline (PBS) and incubated for 30 min in 2% normal donkey serum and 0.1% Triton X-100 in PBS to permeabilise and block non-specific binding. Primary antibody incubation was carried out overnight at 4 °C with rabbit anti-NeuN (Abcam, ab177487, 1:500). Following incubation in primary antibody, PBS washes were repeated (3 × 10min) and incubation with the secondary antibody (Alexa Fluor 594nm Donkey anti-rabbit IgG 1:500) was carried out. Images of the lesioned striatum were collected on an Olympus BX51 upright microscope using a 10×/0.30 UPlanFLN objectives and captured using a Retiga 6000 Color and R6 camera through QCapture Pro 7 and Ocular Software (QImaging Inc.). Specific band pass filter sets were used to prevent bleed through from one channel to the next. NeuN staining was quantified using ImageJ (1.52n) [51]-[53] using 5 snapshots for the caudate putamen, 3 snapshots for the globus pallidus and 2 snapshots for the substantia nigra for each side of the brain (ipsi- and contralateral). Both the total number of neurons averaged over the snapshots and the percentage of stained areas were measured.
# For NeuN staining analysis and ^18F-IAM6067 autoradiography in the AMPA model, percentage stained area, cell counts and ^18F-IAM6067 were analysed using paired t-tests (ipsi- vs contralateral) for the caudate-putamen, globus pallidus and substantia nigra.
# [3] = target: S1R (Rattus norvegicus, UniProt Q9R0C9); assay: PET pre-saturation (blocking) studies of ^18F-IAM6067 uptake; assay type: in vivo; conditions: blocker 1 mg/kg i.v. 20-30 min before scan
# Chain of S1R (Rattus norvegicus, UniProt Q9R0C9) (Q9R0C9 whole entry): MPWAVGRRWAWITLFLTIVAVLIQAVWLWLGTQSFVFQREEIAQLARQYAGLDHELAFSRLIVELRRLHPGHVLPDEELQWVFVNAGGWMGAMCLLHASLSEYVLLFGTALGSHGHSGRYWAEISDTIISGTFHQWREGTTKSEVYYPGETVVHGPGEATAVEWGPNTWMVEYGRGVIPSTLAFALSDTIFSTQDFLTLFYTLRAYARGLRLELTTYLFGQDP
# Protocol: PET data were expressed as SUV.
# As the experiments with CM398 were performed later, scans without and with pre-treatment with CM398 were performed in the same animals and therefore were analysed using 2 way ANOVA with repeated measures for ROI and treatment. ANOVA were followed by a Sidak's post-hoc test.
# [4] = tested on: S1R; conditions: baboon pre-treated with haloperidol 1 mg/kg i.v.; cited from earlier work
# [5] = tested on: sigma binding sites; design: method as in PMID 8221112; conditions: hippocampus of AD patients vs controls, autoradiography; cited from earlier work
# [6] = globus pallidus, 24 h after intrastriatal AMPA 7.5 nmol, ipsi- vs contralateral
compound,measurement,setting,value
(S)-^18F-fluspidine,Ki,[1]; enantiomers,2300 pM
"Cc1onc(O)c1CC(N)C(=O)O (stereo not drawn) [AMPA, α-amino-3-hydroxy-5-methyl-4-isoxazolepropionic acid]","loss of neurons, NeuN % stained area","[2]; caudate-putamen, 24 h after intrastriatal AMPA 7.5 nmol, ipsi- vs contralateral",-81 ± 3%
same,"loss of neurons, NeuN % stained area",[2]; [6],-71 ± 8%
same,"loss of neurons, NeuN cell number",[2]; [6],-56 ± 17%
same,loss of neurons in the striatum (NeuN immunostaining),[2]; striatum,70-80%
COc1cc2c(cc1OC)CN(CCCCn1c(=O)n(C)c3ccccc31)CC2 [CM398],effect of pre-saturation on ^18F-IAM6067 uptake vs baseline (in words),[3],no significant blockade; also recorded: did not reveal any significant difference; also recorded: did not result in a significant reduction
O=C(CCCN1CCC(O)(c2ccc(Cl)cc2)CC1)c1ccc(F)cc1 [haloperidol],displacement in specific receptor binding of ^18F-IAM6067 in all areas of the brain,[4],80%
O=c1sc2cc(CCCF)ccc2n1CCN1CCCCCC1 [^18F-FTC-146],Ki,[1],2.5 pM
FCC[C@H]1OC2(CCN(Cc3ccccc3)CC2)c2ccccc21 [(R)-^18F-fluspidine],Ki,[1]; enantiomers,520 pM
CN(C)CCN(C)CCc1ccc(Cl)c(Cl)c1 [BD1047],decrease (blocking) of ^18F-IAM6067 uptake in all areas of the brain,[3],79-90%
same,effect of pre-saturation on ^18F-IAM6067 uptake vs baseline (in words),[3],full blocking
Cn1ccc2cc3c(cc21)CCN3C(=O)Nc1cccnc1 [SB206553],effect of pre-saturation on ^18F-IAM6067 uptake vs baseline (in words),[3],no significant blockade; also recorded: did not reveal any significant difference; also recorded: no significant difference
COc1ccc(CCN2CCN(CCCc3ccccc3)CC2)cc1OC [^11C-SA4503],Ki,[1],4400 pM
Cc1ccccc1NC(=N)Nc1ccccc1C [^3H-DTG],decrease in binding,[5],26%
FCCC1OC2(CCN(Cc3ccccc3)CC2)c2ccccc21 (stereo not drawn) [^18F-fluspidine],Ki,[1],590 pM

# From PMC7381740 (Theranostics, 2020)
